# Source: article PMC12203311, “Design, synthesis, in silico and in vitro evaluation of pyrrole–indole hybrids as dual tubulin and aromatase inhibitors with potent anticancer activities” (RSC Advances, 2025)
# How the values were obtained:
# Assay in all cases: NCI60 five-dose screen
# HCT-15 = assay type: cell-based; details: Homo sapiens, HCT-15, colon cancer
# NCI-H23 = assay type: cell-based; details: Homo sapiens, NCI-H23, NSC lung cancer
# TK-10 = assay type: cell-based; details: Homo sapiens, TK-10, renal cancer
# NCI-H522 = assay type: cell-based; details: Homo sapiens, NCI-H522, NSC lung cancer
# OVCAR-3 = assay type: cell-based; details: Homo sapiens, OVCAR-3, ovarian cancer
# PC-3 = assay type: cell-based; details: Homo sapiens, PC-3, prostate cancer
# MDA-MB-231/ATCC = assay type: cell-based; details: Homo sapiens, breast cancer
# CAKI-1 = assay type: cell-based; details: Homo sapiens, CAKI-1, renal cancer
# COLO 205 = assay type: cell-based, human; details: Homo sapiens
# A549/ATCC = assay type: cell-based; details: Homo sapiens, NSC lung cancer
# IGROV1 = assay type: cell-based; details: Homo sapiens, IGROV-1; IGROV1, ovarian cancer
# BT-549 = assay type: cell-based; details: Homo sapiens, BT-549, breast cancer
# SN12C = assay type: cell-based; details: Homo sapiens, renal cancer
# MCF7 = assay type: cell-based; details: Homo sapiens, MCF7, breast cancer
# LOX IMVI = assay type: cell-based; details: Homo sapiens, melanoma
# SF-295 = assay type: cell-based; details: Homo sapiens, SF-295, CNS cancer
# UACC-62 = assay type: cell-based; details: Homo sapiens, UACC-62, melanoma
# SNB-75 = assay type: cell-based; details: Homo sapiens, SNB-75, CNS cancer
# SK-MEL-5 = assay type: cell-based, human; details: Homo sapiens
# K-562 = assay type: cell-based; details: Homo sapiens, K562, K-562, leukemia
# NCI/ADR-RES = assay type: cell-based, human; details: Homo sapiens, ovarian cancer
# OVCAR-4 = assay type: cell-based; details: Homo sapiens, OVCAR-4, ovarian cancer
# UACC-257 = assay type: cell-based; details: Homo sapiens, UACC-257, melanoma
# HL-60 (TB) = assay type: cell-based; details: Homo sapiens, leukemia
# DU-145 = assay type: cell-based; details: Homo sapiens, DU-145, prostate cancer
# SK-MEL-2 = assay type: cell-based; details: Homo sapiens, SK-MEL-2, melanoma
# U251 = assay type: cell-based; details: Homo sapiens, U-251, U251, CNS cancer
# SK-MEL-28 = assay type: cell-based; details: Homo sapiens, SK-MEL-28, melanoma
# RPMI-8226 = assay type: cell-based; details: Homo sapiens, RPMI-8226, leukemia
# ACHN = assay type: cell-based; details: Homo sapiens, renal cancer
# EKVX = assay type: cell-based; details: Homo sapiens, NSC lung cancer
# OVCAR-8 = assay type: cell-based; details: Homo sapiens, OVCAR-8, ovarian cancer
# NCI-H460 = assay type: cell-based; details: Homo sapiens, NCI-H460, NSC lung cancer
# HOP-62 = assay type: cell-based; details: Homo sapiens, HOP-62, NSC lung cancer
# SNB-19 = assay type: cell-based; details: Homo sapiens, SNB-19, CNS cancer
# SK-OV-3 = assay type: cell-based; details: Homo sapiens, SK-OV-3, ovarian cancer
# [1] = read-out: LC50 (the source's name)
compound,measurement,setting,value
"CCOC(=O)c1cc(/C=N/NC(=O)c2[nH]c3ccc(Br)cc3c2-c2ccccc2)c[nH]1 [Derivative 3v, Ethyl (E)-4-((2-(5-bromo-3-phenyl-1H-indole-2-carbonyl)hydrazono)methyl)-1H-pyrrole-2-carboxylate]",GI50,HCT-15,3.21 µM
same,CC50,HCT-15; [1],35.7 µM
same,GI50,NCI-H23,3.42 µM
same,CC50,NCI-H23; [1],40.4 µM
same,GI50,TK-10,12.5 µM
same,CC50,TK-10; [1],80.7 µM
same,GI50,NCI-H522,2.41 µM
same,CC50,NCI-H522; [1],61.2 µM
same,GI50,OVCAR-3,3.23 µM
same,CC50,OVCAR-3; [1],33.4 µM
same,GI50,PC-3,4.07 µM
same,CC50,PC-3; [1],> 100 µM
same,GI50,MDA-MB-231/ATCC,3.27 µM
same,CC50,MDA-MB-231/ATCC; [1],33.8 µM
same,GI50,CAKI-1,3.2 µM
same,CC50,CAKI-1; [1],40.2 µM
same,CC50,"COLO 205; COLO 205, COLO 205, colon cancer, read-out: LC50 (the source's name)",34.8 µM
same,GI50,"COLO 205; COLO 205, colon cancer",3.51 µM
same,GI50,A549/ATCC,4.37 µM
same,CC50,A549/ATCC; [1],44.2 µM
same,GI50,IGROV1,3.75 µM
same,GI50,BT-549,13.4 µM
same,CC50,BT-549; [1],60.2 µM
same,GI50,SN12C,3.63 µM
same,CC50,SN12C; [1],38.1 µM
same,GI50,MCF7,3.03 µM
same,CC50,MCF7; [1],40.3 µM
same,GI50,LOX IMVI,4.31 µM
same,CC50,LOX IMVI; [1],41.1 µM
same,GI50,SF-295,3.04 µM
same,CC50,SF-295; [1],37.2 µM
same,GI50,UACC-62,3.18 µM
same,CC50,UACC-62; [1],40.7 µM
same,GI50,SNB-75,1.95 µM
same,CC50,SNB-75; [1],90.6 µM
same,CC50,"SK-MEL-5; SK-MEL-5, SK-MEL-5, melanoma, read-out: LC50 (the source's name)",17.9 µM
same,GI50,"SK-MEL-5; SK-MEL-5, melanoma",2.01 µM
same,GI50,K-562,4.59 µM
same,CC50,K-562; [1],> 100 µM
same,GI50,NCI/ADR-RES,2.23 µM
same,CC50,NCI/ADR-RES; [1],21.2 µM
same,GI50,OVCAR-4,9 µM
same,CC50,OVCAR-4; [1],52.8 µM
same,GI50,UACC-257,11.7 µM
same,CC50,UACC-257; [1],77.8 µM
same,GI50,HL-60 (TB),4.68 µM
same,CC50,HL-60 (TB); [1],> 100 µM
same,GI50,DU-145,3.36 µM
same,CC50,DU-145; [1],33.4 µM
same,GI50,SK-MEL-2,4.37 µM
same,CC50,SK-MEL-2; [1],47.3 µM
same,GI50,U251,3.8 µM
same,CC50,U251; [1],37.6 µM
same,GI50,SK-MEL-28,4.73 µM
same,CC50,SK-MEL-28; [1],48.5 µM
same,GI50,RPMI-8226,3.84 µM
same,CC50,RPMI-8226; [1],> 100 µM
same,GI50,ACHN,4.87 µM
same,CC50,ACHN; [1],49.9 µM
same,GI50,EKVX,7.14 µM
same,CC50,EKVX; [1],60.7 µM
same,GI50,OVCAR-8,3.65 µM
same,CC50,OVCAR-8; [1],38.5 µM
same,GI50,NCI-H460,3.49 µM
same,CC50,NCI-H460; [1],34.3 µM
same,GI50,HOP-62,6.66 µM
same,CC50,HOP-62; [1],69.2 µM
same,GI50,SNB-19,4.08 µM
same,CC50,SNB-19; [1],43.4 µM
same,GI50,SK-OV-3,1.31 µM
same,CC50,SK-OV-3; [1],80.3 µM
